In assay [1] the test system is Cricetinae gen. sp. Put plainly: Inhibition of Elastase-induced pulmonary Hemorrhage(EPH) in Hamsters at a dose of 20 ug/mL. It is filed as functional, Cricetulus griseus.
For assay [2], the target named is T1, Neutrophil elastase (Homo sapiens, UniProt P08246).
T1 sequence (P08246 whole entry): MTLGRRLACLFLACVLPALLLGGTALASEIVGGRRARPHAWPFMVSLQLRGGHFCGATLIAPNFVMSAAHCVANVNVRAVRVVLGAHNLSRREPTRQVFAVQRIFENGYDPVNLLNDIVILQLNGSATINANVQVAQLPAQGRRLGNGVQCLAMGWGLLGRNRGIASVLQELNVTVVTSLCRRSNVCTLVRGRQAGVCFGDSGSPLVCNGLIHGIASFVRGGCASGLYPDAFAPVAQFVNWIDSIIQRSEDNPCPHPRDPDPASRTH
Nature of the assay: Inhibitory activity against human leukocyte elastase (HLE) at pH 7.5.

For assay [3], the system named is Cricetinae gen. sp. Nature of the assay: Inhibition of Elastase-induced pulmonary Hemorrhage(EPH) in Hamsters at a dose of 10 ug/mL. It is filed as functional, Cricetulus griseus.
Assay [4] deals with Cricetinae gen. sp. Put plainly: Inhibition of Elastase-induced pulmonary Hemorrhage(EPH) in Hamsters at a dose of 3 ug/mL. It is filed as functional, Cricetulus griseus.

The structures appear in SMILES notation. Numbered stars: 1 amine (or outer) side, 2 acyl side, 3 side chain; on linkers, the order of the positions; unused ones are H or OH. Square brackets hold non-standard residues; d marks the D form. Peptide text beside a SMILES is read from it. * marks the point of attachment. X1 = CC(C)[C@H](N[*:1])C(=O)C(F)(F)C(=O)[*:2]; N(Indan-2-yl)Gly = O=C(O)CNC1Cc2ccccc2C1; Cbz = O=C(OCc1ccccc1)* Where only a bound is given, the exact number is not on record here.

Take `CCOC(=O)C(F)(F)C(=O)[C@H](CC(C)C)NC(=O)CN(C(=O)[C@@H](NC(=O)c1ccc(C(=O)NS(=O)(=O)c2ccc(Cl)cc2)cc1)C(C)C)C1Cc2ccccc2C1`: the Max reduction in assay [1] turned out to be 55.2%. The IC50 is the midpoint of a concentration-inhibition curve. Consider `CCOC(=O)C(F)(F)C(=O)[C@H](Cc1ccccc1)NC(=O)CN(C(=O)[C@@H](NC(=O)c1ccc(C(=O)NS(=O)(=O)c2ccc(Cl)cc2)cc1)C(C)C)C1Cc2ccccc2C1`, for which, in assay [2], the IC50 was more than 5 µM. The molecule further registered a Max reduction in assay [3] of 12.2%. For the molecule `CC(C)C(NC(=O)CN(C(=O)[C@@H](NC(=O)c1ccc(C(=O)NS(=O)(=O)c2ccc(Cl)cc2)cc1)C(C)C)C1Cc2ccccc2C1)C(=O)C(F)(F)F` (stereo partly specified), the Max reduction was found to be 58.1% in assay [4] and 90.5% in assay [3]. In turn, `COC(=O)[C@H](CCCCNC(=O)C(F)(F)C(=O)[C@@H](NC(=O)CN(C(=O)[C@@H](NC(=O)OCc1ccccc1)C(C)C)C1Cc2ccccc2C1)C(C)C)NC(C)=O` returned a Max reduction in assay [1] of 7.6%.

`CCOC(=O)C(F)(F)C(=O)[C@@H](NC(=O)CN(C(=O)[C@@H](NC(=O)OCc1ccccc1)C(C)C)C1Cc2ccccc2C1)C(C)C` returned a Max reduction in assay [1] of 51.9%.

`CCOC(=O)C(F)(F)C(=O)[C@@H](NC(=O)CN(C(=O)[C@@H](NC(=O)c1ccc(C(=O)NS(=O)(=O)c2ccc(Cl)cc2)cc1)C(C)C)C1Cc2ccccc2C1)C(C)C` showed a Max reduction in assay [3] of 94.6%.

`CCOC(=O)CNC(=O)CNC(=O)C(F)(F)C(=O)[C@@H](NC(=O)CN(C(=O)[C@@H](NC(=O)OCc1ccccc1)C(C)C)C1Cc2ccccc2C1)C(C)C` (Cbz-V[N(Indan-2-yl)Gly][X1]GG-OEt) gave a Max reduction in assay [1] of 33.3%. In the case of `CC(C)[C@H](NC(=O)OCc1ccccc1)C(=O)N(CC(=O)N[C@H](C(=O)C(F)(F)C(=O)O)C(C)C)C1Cc2ccccc2C1`, the Max reduction in assay [1] is given as 55.8%. The molecule further yielded an IC50 in assay [2] of more than 5 µM.

The values are drawn from ChEMBL document CHEMBL1125561, “Inhibition of human leukocyte elastase by N-substituted peptides containing alpha,alpha-difluorostatone residues at P1” (J Med Chem, 1992).
